# In patent US4818749A, “Carboxyalkyl dipeptides and medical use thereof in treating hypertension and congestive heart failure” (Schering Corporation, priority 1981, dated 1989):
# Biological target: T1, angiotensin converting enzyme (ACE) (Rattus norvegicus, UniProt P47820)
# T1 construct: Drugs were injected intravenously; from tissue; host or cells: whole living animal (anesthetized Sprague-Dawley rat); no enzyme isolated
# T1 sequence (P47820 36-1313): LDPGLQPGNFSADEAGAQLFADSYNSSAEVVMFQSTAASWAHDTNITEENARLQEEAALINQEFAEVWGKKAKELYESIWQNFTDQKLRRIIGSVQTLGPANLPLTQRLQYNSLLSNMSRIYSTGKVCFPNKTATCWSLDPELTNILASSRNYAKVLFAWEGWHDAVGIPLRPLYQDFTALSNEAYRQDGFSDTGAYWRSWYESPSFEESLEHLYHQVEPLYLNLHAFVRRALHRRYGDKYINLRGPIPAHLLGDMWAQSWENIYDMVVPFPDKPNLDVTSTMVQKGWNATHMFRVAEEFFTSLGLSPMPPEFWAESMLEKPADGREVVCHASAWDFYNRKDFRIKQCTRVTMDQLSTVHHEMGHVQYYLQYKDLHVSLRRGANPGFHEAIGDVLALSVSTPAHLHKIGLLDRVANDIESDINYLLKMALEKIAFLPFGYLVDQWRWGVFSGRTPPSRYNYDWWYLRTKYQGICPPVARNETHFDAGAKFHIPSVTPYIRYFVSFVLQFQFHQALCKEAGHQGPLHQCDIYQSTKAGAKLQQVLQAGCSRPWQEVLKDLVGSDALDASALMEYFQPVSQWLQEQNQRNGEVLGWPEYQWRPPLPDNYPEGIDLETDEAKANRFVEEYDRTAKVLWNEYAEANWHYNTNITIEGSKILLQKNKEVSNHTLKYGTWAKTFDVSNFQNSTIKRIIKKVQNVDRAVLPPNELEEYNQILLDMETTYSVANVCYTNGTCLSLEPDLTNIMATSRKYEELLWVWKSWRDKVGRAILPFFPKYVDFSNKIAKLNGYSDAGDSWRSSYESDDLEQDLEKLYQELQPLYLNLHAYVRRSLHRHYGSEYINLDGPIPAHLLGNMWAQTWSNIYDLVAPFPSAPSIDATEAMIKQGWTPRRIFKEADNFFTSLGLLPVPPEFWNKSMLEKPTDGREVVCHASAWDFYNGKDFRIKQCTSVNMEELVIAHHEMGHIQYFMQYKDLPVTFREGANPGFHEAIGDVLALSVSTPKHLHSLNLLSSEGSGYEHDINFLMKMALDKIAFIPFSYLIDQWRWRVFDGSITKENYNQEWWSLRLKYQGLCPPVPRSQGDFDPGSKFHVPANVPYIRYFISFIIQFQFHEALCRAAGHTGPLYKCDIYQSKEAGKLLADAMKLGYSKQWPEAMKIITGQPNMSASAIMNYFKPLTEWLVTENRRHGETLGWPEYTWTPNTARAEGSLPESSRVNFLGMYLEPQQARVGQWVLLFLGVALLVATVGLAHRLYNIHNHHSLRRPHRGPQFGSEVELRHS
# Assay: ACE inhibition in anesthetized rats: inhibition of angiotensin I pressor response after iv test drug
# Type: in vivo, Sprague-Dawley rats
# Settings: anesthetized Sprague-Dawley rats; drug iv; angiotensin I challenge 5 min after dosing; blood pressure response as percent of control; linear regression
row,Compound,ID50
1,"CCOC(=O)[C@H](CSCc1ccc2ccccc2c1)N[C@H](C)C(=O)N1C2CCCCC2C[C@H]1C(=O)O.Cl (relative stereo) [Compound 7, 1-[N-[1(R)-Ethoxycarbonyl-2-(2-naphthylmethylthio)ethyl]-(R)alanyl]-cis,syn-perhydroindole-2(S)-carboxylic acid hydrochloride]","> 1,000 μg/kg"
2,"CCOC(=O)[C@H](CSCc1ccccc1)NC(C)C(=O)N1CCC[C@H]1C(=O)O.Cl (stereo partly drawn) [Compound 1, N-(1(R)-Ethoxycarbonyl-2-benzylthioethyl)-(R,S)-alanyl-(S)-proline hydrochloride]",66 µg/kg
3,"CCOC(=O)[C@H](COCc1ccccc1)NC(C)C(=O)N1CCC[C@H]1C(=O)O.Cl (stereo partly drawn) [Compound 2, N-(1(S)-Ethoxycarbonyl-2-benzyloxyethyl)-(R,S)-alanyl-(S)-proline hydrochloride]",130 µg/kg
4,"CCOC(=O)[C@H](CSCCc1ccccc1)N[C@@H](C)C(=O)N1C2CCCCC2C[C@H]1C(=O)O.Cl (relative stereo) [Compound 8, 1-[N-[1(R)-Ethoxycarbonyl-2-(phenylethylthio)ethyl]-(S)alanyl]-cis,syn-perhydroindole-2(S)-carboxylic acid hydrochloride]",32 µg/kg
5,"CCOC(=O)[C@H](CSCc1ccc2ccccc2c1)N[C@@H](C)C(=O)N1[C@H](C(=O)O)C[C@@H]2CCCC[C@@H]21.Cl (relative stereo) [Compound 6, 1-[N-[1(R)-Ethoxycarbonyl-2-(2-naphthylmethylthio)ethyl]-(S)-alanyl]-cis,syn-perhydroindole-2(S)-carboxylic acid hydrochloride]",> 100 µg/kg
6,"CCOC(=O)[C@H](CSCc1ccccc1)N[C@@H](C)C(=O)N1[C@H](C(=O)O)C[C@@H]2CCCC[C@@H]21 (relative stereo) [Compound 4, 1-[N-[1(R)-EthoxYcarbonyl-2-(benzylthio)ethyl]-(S)-alanyl]-cis,syn-perhydroindole-2(S)-carboxylic acid]",29 µg/kg
7,"CCOC(=O)[C@H](CSCCc1ccccc1)N[C@H](C)C(=O)N1[C@H](C(=O)O)C[C@@H]2CCCC[C@@H]21.Cl (relative stereo) [Compound 9, 1-[N-[1(R)-Ethoxycarbonyl-2-(phenylethylthio)ethyl]-(R)alanyl]-cis,syn-perhydroindole-2(S)-carboxylic acid hydrochloride]","> 1,000 μg/kg"
8,"CCOC(=O)[C@H](CSCc1ccccc1)NC(C)C(=O)N1C2CCCCC2C[C@H]1C(=O)O.Cl (relative stereo) [Compound 3, 1-[N-[1(R)-Ethoxycarbonyl-2-(benzylthio)ethyl]-(R,S)-alanyl]-cis,syn-perhydroindole-2(S)-carboxylic acid, hydrochloride]",30 µg/kg
9,"C[C@H](N[C@@H](CCc1ccccc1)C(=O)O)C(=O)N1CCC[C@H]1C(=O)O [enalapril diacid, reference compound]",15 ± 3 µg/kg
10,"Br.CCOC(=O)[C@H](CSCc1ccccc1)N[C@H](C)C(=O)N1[C@H](C(=O)O)C[C@@H]2CCCC[C@@H]21 (relative stereo) [Compound 5, 1-[N-[1(R)-Ethoxycarbonyl-2-(benzylthio)ethyl]-(R)-alanyl]-cis,syn-perhydroindole-2(S)-carboxylic acid, hydrobromide]",350 µg/kg
11,"C[C@H](N[C@@H](CCc1ccc(C(=O)O)cc1)C(=O)O)C(=O)N1C2CCCCC2C[C@H]1C(=O)O (relative stereo) [Compound 10, 1-[N-[1(S)-Carboxy-3-(4-carboxyphenyl)propyl]-(S)-alanyl]-cis,syn-perhydroindole-2(S)-carboxylic acid]",11 µg/kg
12,"CCOC(=O)[C@H](CSCc1ccc(C)cc1)NC(C)C(=O)N1C2CCCCC2C[C@H]1C(=O)O (relative stereo) [4-methylbenzyl-thiomethyl, 1-[N-[1(R)-Ethoxycarbonyl-2-(4-methylbenzylthio)ethyl]-(R,S)-alanyl]-cis,syn-perhydroindole-2(S)-carboxylic acid]",88 µg/kg

# Same assay, conditions: rat, iv, 5 min, read-out: ID50
row,Compound,ED50 [mg/kg]
1,"CCOC(=O)[C@H](CCc1ccccc1)N[C@@H](C)C(=O)N1CCC[C@H]1C(=O)O [enalapril, reference compound]",0.057 ± 0.007
